This note sets out measurements from patent publication US11932632B1, “N'-(2-(5-phenyl-1,3,4-oxadiazol-2-ylthio)acetoxy)benzo[d][1,3]dioxole-5 carboximidamide as an antimicrobial compound” (KING FAISAL UNIVERSITY, priority 2023, dated 2024).

What all share (type): cell-based
For one experiment, the system named is Bacillus Cereus. The experiment can be described thus: Agar plate disc-diffusion, antibacterial activity by inhibition zone. The conditions noted are these: nutrient agar, 37° C., 48 h, DMSO zone subtracted. On the procedure:
(§1) The agar plate disc-diffusion method was applied. […] The discs were then placed onto the surface of agar plates (nutrient agar for bacteria and Sabouraud's dextrose agar for fungi) seeded with the test organism. Each plate contained 15 mL of the agar medium, previously seeded with 0.2 mL of the broth culture of each organism pregrown for 18 hours. The plates were incubated at 37° C. for 48 h, and 72 h for fungi. The inhibition zones were measured in mm. Discs impregnated with DMSO were used as a control, and its inhibition zone was subtracted from the tested compound actual inhibition zone.
(§2) The results of the antimicrobial testing can be observed in Tables 1 and 2, below, using ciprofloxacin as a reference.
(In general: Agar diffusion results depend on both activity and mobility in agar.)

The next experiment concerns Escherichia coli. The description is as above. The following applies: nutrient agar, 37° C., 48 h, DMSO zone subtracted. As to the method:
as §1, §2

The next experiment deals with Pseudomonas aeruginosa. Described as above. The following applies: nutrient agar, 37° C., 48 h, DMSO zone subtracted. As to the method: as §1, §2
A further experiment has as its system Staphylococcus aureus. The description is as above. The following applies: nutrient agar, 37° C., 48 h, DMSO zone subtracted. On the procedure: as §1, §2
A further experiment concerns Aspergillus flavus. Put plainly: Agar plate disc-diffusion, antifungal activity by inhibition zone. The following applies: Sabouraud's dextrose agar, 37° C., 72 h, DMSO zone subtracted. On the procedure:
as §1, §2

The test system of experiment [1] is Chrysosporium keratinophilum. The experiment is described as above. The conditions noted are these: Sabouraud's dextrose agar, 37° C., 72 h, DMSO zone subtracted. As to the method: as §1, §2
[2] abbreviates: A = concentration of comp. = 10,000 μL.
Setting [3] is: B = concentration of comp. = 30.000 μL.
Where [4] appears, read: C = concentration of comp. = 50,000 μL.

For `N/C(=N\OC(=O)CSc1nnc(-c2ccccc2)o1)c1ccc2c(c1)OCO2` [Compound 3, N′-(2-(5-phenyl-1,3,4-oxadiazol-2-ylthio)acetoxy)benzo[d][1,3]dioxole-5-carboximidamide], the “inhibition zone, Bacillus Cereus, A” value in the experiment with Bacillus Cereus (setting [2]) is 25 mm. The “inhibition zone, Bacillus Cereus, B” value in the experiment with Bacillus Cereus (setting [3]) came out at 29 mm. The “inhibition zone, Bacillus Cereus, C” value with Bacillus Cereus (setting [4]) is 39 mm. For the same molecule, in the experiment on Escherichia coli (setting [2]), the “inhibition zone, Escherichia coli, A” value is on record as 29 mm. Moreover, the “inhibition zone, Escherichia coli, B” value in the experiment on Escherichia coli (setting [3]) was 33 mm. The “inhibition zone, Escherichia coli, C” value in the experiment on Escherichia coli (setting [4]) amounted to 49 mm. Also, the “inhibition zone, Pseudomonas aeruginosa, A” value in the experiment on Pseudomonas aeruginosa (setting [2]) is reported as 24 mm. For the same molecule, the “inhibition zone, Pseudomonas aeruginosa, B” value in the experiment on Pseudomonas aeruginosa (setting [3]) is reported as 27 mm. Further, in the experiment with Pseudomonas aeruginosa (setting [4]), the “inhibition zone, Pseudomonas aeruginosa, C” value was 39 mm. Further, the “inhibition zone, Staphylococcus aureus, A” value with Staphylococcus aureus (setting [2]) is reported as 18 mm. In the experiment with Staphylococcus aureus (setting [3]), the “inhibition zone, Staphylococcus aureus, B” value amounted to 21 mm. Further, the “inhibition zone, Staphylococcus aureus, C” value in the experiment with Staphylococcus aureus (setting [4]) is reported as 37 mm. In the experiment with Aspergillus flavus (setting [2]), the “inhibition zone, Aspergillus flavus, A” value is recorded as 21 mm. Further, the “inhibition zone, Aspergillus flavus, B” value in the experiment on Aspergillus flavus (setting [3]) turned out to be 25 mm. Moreover, the “inhibition zone, Aspergillus flavus, C” value in the experiment on Aspergillus flavus (setting [4]) came to 36 mm. The “inhibition zone, Chrysosporium keratinophilum, A” value in experiment [1] (setting [2]) is given as 25 mm. The “inhibition zone, Chrysosporium keratinophilum, B” value in experiment [1] (setting [3]) is 27 mm. Also, the “inhibition zone, Chrysosporium keratinophilum, C” value in experiment [1] (setting [4]) is 42 mm.
